Assay results published in ChEMBL document CHEMBL6127068, “Discovery of novel nitrofuran PROTAC-like compounds as dual inhibitors and degraders targeting STING” (Eur J Med Chem, 2024).
The source made the active and inactive calls. The calls are words filed in the database; no cut-off is given here.

What was measured:
[1] = target: T1, Protein cereblon/Stimulator of interferon genes protein (Homo sapiens, UniProt Q96SW2+Q86WV6); experiment: PROTAC activity at CRBN/STING in human THP-1 cells assessed as induction of STING degradation at 10 uM incubated for 24 hrs by western blot analysis; format: cell-based
T1 sequence (Q86WV6 whole entry, looked up): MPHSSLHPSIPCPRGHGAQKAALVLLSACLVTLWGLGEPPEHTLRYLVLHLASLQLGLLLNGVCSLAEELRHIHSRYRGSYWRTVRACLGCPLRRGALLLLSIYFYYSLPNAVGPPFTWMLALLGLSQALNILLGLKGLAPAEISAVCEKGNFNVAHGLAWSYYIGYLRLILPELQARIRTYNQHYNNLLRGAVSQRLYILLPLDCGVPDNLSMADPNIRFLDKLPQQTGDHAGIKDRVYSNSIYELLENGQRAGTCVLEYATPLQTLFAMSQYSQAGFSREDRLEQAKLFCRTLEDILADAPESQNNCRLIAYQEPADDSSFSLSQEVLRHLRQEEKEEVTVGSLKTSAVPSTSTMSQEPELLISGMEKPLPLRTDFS
T1 sequence (Q96SW2 whole entry, looked up): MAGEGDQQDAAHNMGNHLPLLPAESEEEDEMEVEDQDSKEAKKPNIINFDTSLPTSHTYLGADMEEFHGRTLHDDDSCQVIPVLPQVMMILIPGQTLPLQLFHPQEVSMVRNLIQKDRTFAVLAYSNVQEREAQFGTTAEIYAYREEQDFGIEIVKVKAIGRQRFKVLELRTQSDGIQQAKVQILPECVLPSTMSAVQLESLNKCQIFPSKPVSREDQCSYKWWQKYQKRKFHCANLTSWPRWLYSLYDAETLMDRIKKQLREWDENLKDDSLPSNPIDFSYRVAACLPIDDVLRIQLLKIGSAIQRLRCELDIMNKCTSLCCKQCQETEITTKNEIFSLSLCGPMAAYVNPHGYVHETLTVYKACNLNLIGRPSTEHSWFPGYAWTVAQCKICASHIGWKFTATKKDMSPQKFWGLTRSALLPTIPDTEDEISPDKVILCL

[2] = Cytotoxicity against HUVEC assessed as reduction in cell viability at 3.3 uM incubated for 48 hrs by MTT assay; format: toxicity, cell-based; settings: human, HUVEC cells, read-out: INH
[3] = Cytotoxicity against HEK293T cells assessed as reduction in cell viability at 3.3 uM incubated for 48 hrs by MTT assay; format: toxicity, cell-based, HEK-293T; settings: human, read-out: INH
[4] = target: T2, von Hippel-Lindau disease tumor suppressor/Stimulator of interferon genes protein (Homo sapiens, UniProt P40337+Q86WV6); experiment: PROTAC activity at VHL/STING (unknown origin) assessed as induction of protein degradation; format: protein assay
Target sequence in this assay (P40337 whole entry): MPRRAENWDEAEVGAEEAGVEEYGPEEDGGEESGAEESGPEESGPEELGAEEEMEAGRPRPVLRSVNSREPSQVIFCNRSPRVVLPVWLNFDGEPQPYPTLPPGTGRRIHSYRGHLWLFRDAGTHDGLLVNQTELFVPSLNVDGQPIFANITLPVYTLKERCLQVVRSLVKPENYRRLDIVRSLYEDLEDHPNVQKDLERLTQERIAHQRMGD
Target sequence in this assay (Q86WV6 whole entry): as the sequence (Q86WV6 whole entry, looked up) above

[5] = target: T2, von Hippel-Lindau disease tumor suppressor/Stimulator of interferon genes protein; experiment: PROTAC activity at VHL/STING (unknown origin) assessed as induction of protein degradation relative to control; format: protein assay
Target sequence in this assay (P40337 whole entry, looked up): as the sequence (P40337 whole entry) above
Target sequence in this assay (Q86WV6 whole entry, looked up): as the sequence (Q86WV6 whole entry, looked up) above

[6] = target: T1, Protein cereblon/Stimulator of interferon genes protein; experiment: PROTAC activity at CRBN/STING in human THP-1 cells assessed as induction of STING degradation at 10 uM pretreated with proteasome inhibitor, MG132 for 1 hr followed by incubation with compound for 24 hrs by western blot analysis; format: cell-based

Activity [1]	Compound	also measured
Active	O=C1CCC(N2C(=O)c3cccc(OCc4cn(CCCCCC(=O)OCc5ccc(NC(=O)c6ccc([N+](=O)[O-])o6)cc5)nn4)c3C2=O)C(=O)N1 (stereo not drawn)	–
71%	O=C1CCC(N2C(=O)c3cccc(OC(=O)CCCc4cn(CCCCCC(=O)Oc5ccc(NC(=O)c6ccc([N+](=O)[O-])o6)cc5)nn4)c3C2=O)C(=O)N1 (stereo not drawn)	–
–	CCCCc1ccc(NC(=O)c2ccc([N+](=O)[O-])o2)cc1	cytotoxicity at 48 h, 3.3 µM [2]: 68.2%; cytotoxicity at 48 h, 3.3 µM [3]: 80.1%
Active	O=C1CCC(N2C(=O)c3ccc(OCc4cn(CC(=O)OCCc5ccc(NC(=O)c6ccc([N+](=O)[O-])o6)cc5)nn4)cc3C2=O)C(=O)N1 (stereo not drawn)	–
76%	O=C1CCC(N2C(=O)c3ccc(OCc4cn(CCCC(=O)OCCc5ccc(NC(=O)c6ccc([N+](=O)[O-])o6)cc5)nn4)cc3C2=O)C(=O)N1 (stereo not drawn)	–
–	Cc1ncsc1-c1ccc([C@H](C)NC(=O)[C@@H]2C[C@@H](O)CN2C(=O)[C@@H](NC(=O)CCC(=O)NCCCNC(=O)c2cccc(S(=O)(=O)n3cc(C(=O)NCCCCCC(=O)Oc4ccc(NC(=O)c5ccc(-c6ccccc6)cc5)cc4NS(=O)(=O)c4ccc(F)cc4)ccc3=O)c2)C(C)(C)C)cc1	DC50 [4]: 0.53 µM; Activity [5]: 56.6%
Active	O=C1CCC(N2C(=O)c3cccc(OCc4cn(CCCC(=O)OCc5ccc(NC(=O)c6ccc([N+](=O)[O-])o6)cc5)nn4)c3C2=O)C(=O)N1 (stereo not drawn)	–
–	CN1C(=O)CCC(N2C(=O)c3cccc(OCc4cn(CCCCCC(=O)OCCc5ccc(NC(=O)c6ccc([N+](=O)[O-])o6)cc5)nn4)c3C2=O)C1=O (stereo not drawn)	Activity [6]: Active
Active	O=C1CCC(N2C(=O)c3cccc(OCc4cn(CC(=O)OCc5ccc(NC(=O)c6ccc([N+](=O)[O-])o6)cc5)nn4)c3C2=O)C(=O)N1 (stereo not drawn)	–
Active	O=C1CCC(N2C(=O)c3cccc(OCc4cn(CCCC(=O)Oc5ccc(NC(=O)c6ccc([N+](=O)[O-])o6)cc5)nn4)c3C2=O)C(=O)N1 (stereo not drawn)	–
inactive	O=C1CCC(N2C(=O)c3cccc(OCc4cn(CCCCCC(=O)Oc5ccc(NC(=O)c6ccc([N+](=O)[O-])o6)cc5)nn4)c3C2=O)C(=O)N1 (stereo not drawn)	–
